These results are taken from US9708334B2, “Substituted 2,4,5,6-tetrahydropyrrolo[3,4-c]pyrazole and 4,5,6,7-tetrahydro-2H-pyrazolo[4,3-c]pyridine compounds as GlyT1 inhibitors” (DART NEUROSCIENCE (CAYMAN) LTD., priority 2014, dated 2017).

The assay concerns the target T1, GlyT1 (Homo sapiens, UniProt P48067).
T1 construct: expressed in transfected cells
T1 sequence (P48067 1-706): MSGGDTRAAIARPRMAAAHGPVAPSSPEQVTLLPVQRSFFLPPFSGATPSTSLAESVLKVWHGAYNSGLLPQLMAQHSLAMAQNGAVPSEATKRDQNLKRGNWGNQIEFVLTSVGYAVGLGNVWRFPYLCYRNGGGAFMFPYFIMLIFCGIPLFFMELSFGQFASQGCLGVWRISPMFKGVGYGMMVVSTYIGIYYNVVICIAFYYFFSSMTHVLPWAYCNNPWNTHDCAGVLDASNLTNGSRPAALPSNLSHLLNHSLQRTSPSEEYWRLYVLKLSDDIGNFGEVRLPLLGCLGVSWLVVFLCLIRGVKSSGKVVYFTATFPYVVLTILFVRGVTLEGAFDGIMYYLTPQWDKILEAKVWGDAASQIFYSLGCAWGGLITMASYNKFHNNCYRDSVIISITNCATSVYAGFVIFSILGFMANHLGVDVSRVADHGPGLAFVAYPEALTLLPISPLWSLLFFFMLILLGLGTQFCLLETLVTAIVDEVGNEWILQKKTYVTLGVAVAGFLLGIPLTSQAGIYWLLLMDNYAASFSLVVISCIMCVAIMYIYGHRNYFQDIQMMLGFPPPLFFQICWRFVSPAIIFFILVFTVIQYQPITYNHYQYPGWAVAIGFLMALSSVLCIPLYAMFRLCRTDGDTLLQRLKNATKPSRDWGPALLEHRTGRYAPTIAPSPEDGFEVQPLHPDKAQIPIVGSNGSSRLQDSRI
In words: Glycine Transporter 1 (GlyT1) uptake assay, scintillation proximity assay of [14C]-glycine uptake. It is filed as cell-based. The note with it: SPA, four parameter logistic fit, read-out: GlyT1 (pIC50) (converted). The essentials:
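[14C]-glycine uptake read by scintillation proximity on a plate counter. IC50 from four-parameter logistic fit of dose-response data.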
Consider `CS(=O)(=O)c1ccc(OCC(F)(F)F)c(C(=O)N2Cc3cn(-c4ccccc4)nc3C2)c1` [Example 102, 5-[5-Methanesulfonyl-2-(2 2 2-trifluoroethoxy)benzoyl]-2-phenyl-2H 4H 5H 6H-pyrrolo[3,4-c]pyrazole], for which the IC50 was below 0.1 µM. In the case of `CS(=O)(=O)c1ccc(OCC(F)(F)F)c(C(=O)N2Cc3cn(-c4ccc(F)cc4)nc3C2)c1` [Example 103, 2-(4-Fluorophenyl)-5-[5-methanesulfonyl-2-(2 2 2-trifluoroethoxy)benzoyl]-2H 4H 5H 6H-pyrrolo[3,4-c]pyrazole], the IC50 is below 0.1 µM. As to `CS(=O)(=O)c1ccc(OCC(F)(F)F)c(C(=O)N2Cc3cn(-c4ccccc4F)nc3C2)c1` [Example 104, 2-(2-Fluorophenyl)-5-[5-methanesulfonyl-2-(2 2 2-trifluoroethoxy)benzoyl]-2H 4H 5H 6H-pyrrolo[3,4-c]pyrazole], the IC50 is below 0.1 µM.

Take `Cc1cccc(-n2cc3c(n2)CN(C(=O)c2cc(S(C)(=O)=O)ccc2OCC(F)(F)F)C3)c1` [Example 105, 5-[5-Methanesulfonyl-2-(2 2 2-trifluoroethoxy)benzoyl]-2-(3-methylphenyl)-2H 4H 5H 6H-pyrrolo[3,4-c]pyrazole]: the IC50 is below 0.1 µM.

Regarding `Cc1cccc(-n2cc3c(n2)CN(C(=O)c2cc(S(C)(=O)=O)ccc2OCC(F)(F)F)C3)c1F` [Example 106, 2-(2-Fluoro-3-methylphenyl)-5-[5-methanesulfonyl-2-(2 2 2-trifluoroethoxy)benzoyl]-2H 4H 5H 6H-pyrrolo[3,4-c]pyrazole], the IC50 was below 0.1 µM. To `CS(=O)(=O)c1ccc(-c2cccc(F)c2)c(C(=O)N2Cc3cn(-c4ccc(F)cn4)nc3C2)c1` [Example 107, 5-Fluoro-2-{5-[2-(3-fluorophenyl)-5-methanesulfonylbenzoyl]-2H 4H 5H 6H-pyrrolo[3,4-c]pyrazol-2-yl}pyridine] belongs below 0.1 µM. As to `CS(=O)(=O)c1ccc(-c2cccc(F)c2)c(C(=O)N2Cc3cn(-c4cncc(F)c4)nc3C2)c1` [Example 108, 3-Fluoro-5-{5-[2-(3-fluorophenyl)-5-methanesulfonylbenzoyl]-2H 4H 5H 6H-pyrrolo[3,4-c]pyrazol-2-yl}pyridine], the IC50 is below 0.1 µM. For `Cc1cc(-n2cc3c(n2)CN(C(=O)c2cc(S(C)(=O)=O)ccc2-c2cccc(F)c2)C3)ccn1` [Example 109, 4-{5-[2-(3-Fluorophenyl)-5-methanesulfonylbenzoyl]-2H 4H 5H 6H-pyrrolo[3,4-c]pyrazol-2-yl}-2-methylpyridine], the IC50 was below 0.1 µM. As for `Cc1cccc(-n2cc3c(n2)CN(C(=O)c2cc(S(C)(=O)=O)ccc2N2CCC(F)(F)CC2)C3)c1` [Example 110, 4 4-Difluoro-1-{4-methanesulfonyl-2-[2-(3-methylphenyl)-2H 4H 5H 6H-pyrrolo[3,4-c]pyrazole-5-carbonyl]phenyl}piperidine], the figure is below 0.1 µM; as for `CCS(=O)(=O)c1ccc(N2CCC(F)(F)CC2)c(C(=O)N2Cc3cn(-c4ccnc(C)c4)nc3C2)c1` [Example 111, 4-{5-[2-(4 4-Difluoropiperidin-1-yl)-5-(ethanesulfonyl)benzoyl]-2H 4H 5H 6H-pyrrolo[3,4-c]pyrazol-2-yl}-2-methylpyridine], below 0.1 µM. As for `CCS(=O)(=O)c1ccc(N2CCC(F)(F)CC2)c(C(=O)N2Cc3cn(-c4cncc(F)c4)nc3C2)c1` [Example 112], the IC50 was below 0.1 µM. As for `CCS(=O)(=O)c1ccc(O[C@@H](C)C(F)(F)F)c(C(=O)N2Cc3cn(-c4ccnc(C)c4)nc3C2)c1` [Example 113, 4-{5-[5-(Ethanesulfonyl)-2-{[(2S)-1 1 1-trifluoropropan-2-yl]oxy}benzoyl]-2H 4H 5H 6H-pyrrolo[3,4-c]pyrazol-2-yl}-2-methylpyridine], the figure is below 0.1 µM. As to `CCS(=O)(=O)c1ccc(O[C@@H](C)C(F)(F)F)c(C(=O)N2Cc3cn(-c4cncc(F)c4)nc3C2)c1` [Example 114, 3-{5-[5-(Ethanesulfonyl)-2-{[(2S)-1 1 1-trifluoropropan-2-yl]oxy}benzoyl]-2H 4H 5H 6H-pyrrolo[3,4-c]pyrazol-2-yl}-5-fluoropyridine], the IC50 was below 0.1 µM. Take `CS(=O)(=O)c1ccc(N2CCCCC2)c(C(=O)N2Cc3cn(-c4ccc(F)cn4)nc3C2)c1` [Example 115, 5-Fluoro-2-{5-[5-methanesulfonyl-2-(piperidin-1-yl)benzoyl]-2H 4H 5H 6H-pyrrolo[3,4-c]pyrazol-2-yl}pyridine]: the IC50 was below 0.1 µM. To `CS(=O)(=O)c1ccc(N2CCCCC2)c(C(=O)N2Cc3cn(-c4cncc(F)c4)nc3C2)c1` [Example 116, 3-Fluoro-5-{5-[5-methanesulfonyl-2-(piperidin-1-yl)benzoyl]-2H 4H 5H 6H-pyrrolo[3,4-c]pyrazol-2-yl}pyridine] belongs below 0.1 µM. Take `Cc1cc(-n2cc3c(n2)CN(C(=O)c2cc(S(C)(=O)=O)ccc2N2CCCCC2)C3)ccn1` [Example 117, 4-{5-[5-Methanesulfonyl-2-(piperidin-1-yl)benzoyl]-2H 4H 5H 6H-pyrrolo[3,4-c]pyrazol-2-yl}-2-methylpyridine]: the IC50 is below 0.1 µM. As for `CS(=O)(=O)c1ccc(OCC2CC2)c(C(=O)N2Cc3cn(-c4ccccc4)nc3C2)c1` [Example 118, 5-[2-(Cyclopropylmethoxy)-5-methanesulfonylbenzoyl]-2-phenyl-2H 4H 5H 6H-pyrrolo[3,4-c]pyrazole], the IC50 is 0.1 to 1 µM.

Regarding `CS(=O)(=O)c1ccc(OCC2CC2)c(C(=O)N2Cc3cn(-c4ccccc4F)nc3C2)c1` [Example 119, 5-[2-(Cyclopropylmethoxy)-5-methanesulfonylbenzoyl]-2-(2-fluorophenyl)-2H 4H 5H 6H-pyrrolo[3,4-c]pyrazole], the IC50 was below 0.1 µM. In the case of `CS(=O)(=O)c1ccc(N2CCC(F)(F)CC2)c(C(=O)N2Cc3cn(-c4ccc(F)cn4)nc3C2)c1` [Example 120, 2-{5-[2-(4 4-Difluoropiperidin-1-yl)-5-methanesulfonylbenzoyl]-2H 4H 5H 6H-pyrrolo[3,4-c]pyrazol-2-yl}-5-fluoropyridine], the IC50 is below 0.1 µM. With `C[C@H](Oc1ccc(S(C)(=O)=O)cc1C(=O)N1Cc2cn(-c3cc(F)ccc3F)nc2C1)C(F)(F)F` [Example 121, 2-(2 5-Difluorophenyl)-5-(5-methanesulfonyl-2-{[(2S)-1 1 1-trifluoropropan-2-yl]oxy}benzoyl)-2H 4H 5H 6H-pyrrolo[3,4-c]pyrazole], the IC50 is below 0.1 µM.

As to `Cc1ccc(F)c(-n2cc3c(n2)CN(C(=O)c2cc(S(C)(=O)=O)ccc2O[C@@H](C)C(F)(F)F)C3)c1` [Example 122, 2-(2-Fluoro-5-methylphenyl)-5-(5-methanesulfonyl-2-{[(2S)-1 1 1-trifluoropropan-2-yl]oxy}benzoyl)-2H 4H 5H 6H-pyrrolo[3,4-c]pyrazole], the IC50 is below 0.1 µM. For the compound `CS(=O)(=O)c1ccc(N2CCC(F)(F)CC2)c(C(=O)N2Cc3cn(-c4cc(F)ccc4F)nc3C2)c1` [Example 123, 1-{2-[2-(2 5-Difluorophenyl)-2H 4H 5H 6H-pyrrolo[3,4-c]pyrazole-5-carbonyl]-4-methanesulfonylphenyl}-4 4-difluoropiperidine], the IC50 was below 0.1 µM. As for `Cc1ccc(F)c(-n2cc3c(n2)CN(C(=O)c2cc(S(C)(=O)=O)ccc2N2CCC(F)(F)CC2)C3)c1` [Example 124, 4 4-Difluoro-1-{2-[2-(2-fluoro-5-methylphenyl)-2H 4H 5H 6H-pyrrolo[3,4-c]pyrazole-5-carbonyl]-4-methanesulfonylphenyl}piperidine], the IC50 is below 0.1 µM.

For the compound `CCS(=O)(=O)c1ccc(O[C@@H](C)C(F)(F)F)c(C(=O)N2Cc3cn(-c4cc(F)ccc4F)nc3C2)c1` [Example 125, 2-(2 5-Difluorophenyl)-5-[5-(ethanesulfonyl)-2-{[(2S)-1 1 1-trifluoropropan-2-yl]oxy}benzoyl]-2H 4H 5H 6H-pyrrolo[3,4-c]pyrazole], the IC50 is below 0.1 µM. On to `CCS(=O)(=O)c1ccc(O[C@@H](C)C(F)(F)F)c(C(=O)N2Cc3cn(-c4cc(C)ccc4F)nc3C2)c1` [Example 126, 5-[5-(Ethanesulfonyl)-2-{[(2S)-1 1 1-trifluoropropan-2-yl]oxy}benzoyl]-2-(2-fluoro-5-methylphenyl)-2H 4H 5H 6H-pyrrolo[3,4-c]pyrazole], for which the IC50 is below 0.1 µM. As for `CCS(=O)(=O)c1ccc(N2CCC(F)(F)CC2)c(C(=O)N2Cc3cn(-c4cc(F)ccc4F)nc3C2)c1` [Example 127, 1-{2-[2-(2 5-Difluorophenyl)-2H 4H 5H 6H-pyrrolo[3,4-c]pyrazole-5-carbonyl]-4-(ethanesulfonyl)phenyl}-4 4-difluoropiperidine], the figure is below 0.1 µM. As for `CCS(=O)(=O)c1ccc(N2CCC(F)(F)CC2)c(C(=O)N2Cc3cn(-c4cc(C)ccc4F)nc3C2)c1` [Example 128, 1-[4-(Ethanesulfonyl)-2-[2-(2-fluoro-5-methylphenyl)-2H 4H 5H 6H-pyrrolo[3,4-c]pyrazole-5-carbonyl]phenyl]-4 4-difluoropiperidine], the IC50 is below 0.1 µM.
